The structures appear in SMILES notation.

Assay type in all cases: cell-based, human
One data set concerns PC3 cells. The experiment in a line: Cellular uptake of gold(III) complexes (ICP-MS). The note with it: 3 μM, 2 h, ICP mass spectrometry. Here is the method:
After treatment, monolayers were washed with ice-cold PBS four times, and the cells were detached with trypsin-EDTA and washed three times with ice-cold PBS by centrifugation. The cell pellet was solubilized in 700 μL of HNO3—HCl solution (1:3 molar ratio) for 2 h at 100° C., and then diluted with 4 mL water. Samples were analyzed for gold on an Agilent 7500 inductively coupled plasma mass spectrometer (ICP-MS). Results were expressed as ng gold/10^6 cells. The experiment was performed a total of two times and the results were expressed as mean and SD.

Data set [1] deals with A549 lung cancer cell line. The experiment in a line: Cytotoxicity assay (MTT, 72 h). The note with it: A549, MTT after 72 h, mean (SD); read-out: Half-maximal inhibitory concentration (IC50). Here is the method:
(§1) R-ME-180 and A2780cis cells were maintained in 1 μM cisplatin. Adipose-derived stromal cells were maintained in MSCGM BulletKit medium (Lonza). All cell lines were cultured at 37° C. in a 5% CO2, fully humidified atmosphere
(§2) Cell lines were seeded in 96-well flat-bottomed microplates in 100 μL culture medium at the following densities: DU145, PC3 and MCF-7 cells (2.5×10^3 cells/well); A2780, A2780cis, ME-180, R-ME-180 and A549 cells (4.0×10^3 cells/well); and MG-63 cells (2.0×10^3 cells/well). Cells were allowed to adhere for 24 h. Then the medium was replaced with fresh medium alone or with one of the gold(III) complexes at increasing concentrations from 0 to 100 μM. The reference drugs cisplatin (0-100 μM) and doxorubicin (0-1 μM) were included as positive controls for growth inhibition. After 72 h, cell viability was assayed using the MTT assay.
(§3) See Chou T. C.; Talalay P. Quantitative analysis of dose-effect relationships: the combined effects of multiple drugs or enzyme inhibitors. […] 22, 27-55, incorporated herein by reference in its entirety. IC50 values were reported as mean (SD). For drug-resistance cell lines, fold resistance (FR) was calculated as the ratio of the IC50 of the resistant cell line to the IC50 of the parental cell line.

Data set [2] relates to MCF-7 breast cancer cell line. The experiment in a line: Cytotoxicity assay (MTT, 72 h). The note with it: MCF-7, MTT after 72 h, mean (SD); read-out: Half-maximal inhibitory concentration (IC50). Here is the method: as §1, §2, §3
The test system of data set [3] is DU145 prostate cancer cell line. Description: Cytotoxicity assay (MTT, 72 h). The note with it: DU145, MTT after 72 h, mean (SD); read-out: Half-maximal inhibitory concentration (IC50). Here is the method: as §1, §2, §3
Data set [4] deals with cisplatin-resistant R-ME-180 clone. Description: Cytotoxicity assay (MTT, 72 h). As for the experimental part:
as §1, §2, §3

In data set [5] the test system is MG-63 osteosarcoma cell line. Description: Cytotoxicity assay (MTT, 72 h). Conditions: MG63, MTT after 72 h, mean (SD); read-out: Half-maximal inhibitory concentration (IC50). Here is the method:
as §1, §2, §3

Data set [6] relates to PC3 prostate cancer cell line. The experiment in a line: Cytotoxicity assay (MTT, 72 h). Conditions: PC3, MTT after 72 h, mean (SD); read-out: Half-maximal inhibitory concentration (IC50). Here is the method:
as §1, §2, §3

Data set [7] has as its system cisplatin- and doxorubicin-resistant A2780cis clone. The experiment in a line: Cytotoxicity assay (MTT, 72 h). As for the experimental part: as §1, §2, §3

In the case of `CC[N+](CC)=C1[S][Au-]2([S]1)[n+]1ccc[n+]3c1-c1[n+]2ccc[n+]1[Au-]31[S]C(=[N+](CC)CC)[S]1.[Cl-].[Cl-].[Cl-].[Cl-]` [C7, [Au2(BPM)(DEDTC)2]Cl4], in the data set on PC3 cells, the “amount of internalized gold (cellular uptake)” value was “greater uptake”. The IC50 in data set [1] is 1.4 µM; in data set [2] it was 0.6 µM; in data set [3], 0.8 µM; in data set [4] (R-ME-180, MTT after 72 h, mean (SD)) it was 4.1 µM; in data set [5], 0.7 µM; in data set [6], 0.8 µM. Besides, in data set [7] (A2780cis, MTT after 72 h, mean (SD)), the IC50 was found to be 0.3 µM. Besides, in data set [4] (IC50 R-ME-180 / IC50 ME-180), the “FR (R-ME-180/ME-180), fold resistance” value is reported as 0.9. Also, the “FR (A2780cis/A2780), fold resistance” value in data set [7] (IC50 A2780cis / IC50 A2780) was found to be 0.9.

(Values after patent publication US12103939B2, “Solid pharmaceutical gold-based composition” (KING FAHD UNIVERSITY OF PETROLEUM AND MINERALS, priority 2019, dated 2024).)
